Where a SMILES comes first, the peptide text is derived from it. Bridges are numbered along the chain shown (N, C = ends).
Assays:
[1] = tested on: Caco-2 cells; assay: LDH release assay, Caco-2; format: cell-based, human; conditions: 24 h
Method: (§1) For viability and cytotoxicity studies, cells were seeded in 96-well flat-bottom culture plates (1 × 10^4 cells/well). To determine migration of nisin A, plantaricin 423 and bacST4SA across the gastrointestinal epithelial and vascular endothelial barriers, HUVEC and Caco-2 cells were grown on an 8 µm pore size tissue culture insert, as shown in Fig. 1. All cell culture experiments were done in triplicate and have been repeated more than three times.
HUVEC and Caco-2 cells were exposed to three different concentrations (25 µM, 50 µM and 100 µM) nisin A, plantaricin 423 and bacST4SA and the presence of extracellular LDH determined using the LDH release assay kit. Sterile ultrapure water was used as negative control (referred to as spontaneous LDH activity) and lysis buffer (10X) was used as positive control (referred to as maximum LDH activity). After incubating the cultures in the presence of the peptides for 24 h at 37 °C, culture supernatants were pipetted into a 96-well plate. Reaction mixture was added to the supernatants and plates were incubated at 25 °C for 30 min. Absorbance was measured at 490 nm and 680 nm, respectively. The percentage cytotoxicity was calculated as follows (1):1 %Cytotoxicity=(Compound−treatedLDHactivity)−(SpontaneousLDHactivity)/MaximumLDHactivity−SpontaneousLDHactivity×100

[2] = Plasma stability assay (loss of antimicrobial activity); format: in vitro ADME, human; conditions: 37 °C, 3 days, agar well diffusion vs L. monocytogenes EGDe, zone diameter (ImageJ)
Method: Human blood was collected in tubes with potassium and EDTA as anticoagulant, centrifuged at 500 × g (10 min, 25 °C) and the plasma collected. Different plasma concentrations (0%, 40% and 80%, v/v) were prepared by diluting with sterile ultrapure water. Nisin A, plantaricin 423 and bacST4SA, each suspended in sterile ultrapure water, were added to the plasma to final concentrations of 25 µM, 50 µM and 100 µM, sterile ultrapure water was used as control. Incubation was at 37 °C for 3 days and bacteriocin activity was tested using the agar well diffusion assay. Listeria monocytogenes EGDe was used as target organism. Digital images of the plates were taken after incubation and activity quantified by measuring the diameter of the zones using ImageJ software (version 1.5; https://imagej.nih.gov/ij/).

[3] = tested on: HUVEC; assay: XTT viability assay, HUVEC; format: cell-based, human; conditions: 24 h, 37 °C
Method: as §1
Cells were grown in 100 µL of culture medium for 24 h at 37 °C. The bacteriocins were separately added to the cells at concentrations of 25 µM, 50 µM and 100 µM. Sterile ultrapure water was used as control. After 24 h of incubation at 37 °C, the reaction mixture containing PMS (N-methyl-dibenzopyrazine-methylsulfate/phenazine methosulphate) and XTT solution, was added to each well and incubated for 4 h at 37 °C. Absorbance readings were recorded at 450 nm, using a microtiter plate reader. The percentage viability was calculated as AT/AC × 100; where AT is the absorbance of peptide-treated cells and AC is the absorbance of control (untreated cells).

[4] = tested on: HUVEC; assay: Neutral red viability assay, HUVEC; format: cell-based, human; conditions: 24 h, 37 °C
Method: as §1
Cells were treated with different concentrations of the peptides as described for the XTT assay. Sterile ultrapure water was used as control. After incubation at 37 °C for 24 h, neutral red solution was added to the cells (10% of the culture volume). After 4 h of incubation at 37 °C, the medium was removed by aspiration and the cells were rinsed with neutral red fixative. The fixative was removed, the dye solubilized by adding […] and the cells were gently stirred for 10 min on a gyratory shaker. Absorbance readings were recorded at 540 nm and 690 nm, respectively, using a microtiter plate reader. The percentage viability was calculated as the absorbance of treated cells divided by the absorbance of untreated cells (AT/AC × 100).

[5] = tested on: HUVEC monolayer; assay: Migration across HUVEC monolayer on transmigration inserts; format: in vitro ADME, human; conditions: 3 h
Method: as §1
HUVECs and Caco-2 cells were seeded onto transmigration inserts (Fig. 1) at a cell density of 1 × 10^5 cells/insert (200 µL). Inserts were carefully placed in a 24-well tissue culture plate containing 700 µL cell growth media. […] The integrity of the monolayers was monitored by ensuring trans-epithelial electrical resistance (TEER) readings remained above 300 Ω throughout the experiment (Millicell-ERS volt-ohm meter, Merck)[51],[52],[62]. […] Transmigration inserts containing no monolayer, was used to determine the total fluorescence. Samples were incubated for 3 h while absorbance was measured at 490 nm every 30 min using a microplate reader. Before each reading, inserts were removed and placed into new microplates containing fresh media. […]
The percentage of peptide that attached to, or entered the cells was quantified by subtracting the sum of migrated peptide (eq. 4) and retained peptide (eq. 5) from the total fluorescence. […]

CC(C)C[C@@H]1NC(=O)[C@H](Cc2c[nH]cn2)NC(=O)[C@H](CO)NC(=O)[C@H](C(C)C)NC(=O)[C@H](CO)NC(=O)[C@@H](NC(=O)[C@H](CO)NC(=O)[C@H](Cc2ccccc2)NC(=O)[C@H](C)NC(=O)[C@H](CCC(N)=O)NC(=O)CNC(=O)[C@H](Cc2c[nH]c3ccccc23)NC(=O)[C@H](CC(N)=O)NC(=O)[C@@H](NC(=O)[C@H](CO)NC(=O)[C@@H]2CSSC[C@H](NC(=O)[C@@H](NC(=O)[C@@H](NC(=O)CNC(=O)[C@H](CC(N)=O)NC(=O)CNC(=O)[C@H](Cc3ccc(O)cc3)NC(=O)[C@H](Cc3ccc(O)cc3)NC(=O)[C@@H](N)CCCCN)C(C)C)[C@@H](C)O)C(=O)NCC(=O)N[C@@H](CCCCN)C(=O)N[C@@H](Cc3c[nH]cn3)C(=O)N[C@@H](CO)C(=O)N2)C(C)C)CSSC[C@@H](C(=O)O)NC(=O)[C@H](CCCCN)NC(=O)CNC(=O)[C@H](Cc2c[nH]cn2)NC(=O)CNC(=O)[C@H](Cc2ccccc2)NC(=O)[C@H](CC(N)=O)NC(=O)[C@H](C)NC1=O [plantaricin 423] (H-KYYGNGVTCGKHSCSVNWGQAFSCSVSHLANFGHGKC-OH; disulfide 9-14, 24-37; N-terminus and C-terminus assumed)
cytotoxicity level (LDH release) ([1]; Caco-2, 100 µM, 37 °C, percentage of maximum LDH release (lysis buffer = 100%)): 17%
toxicity (LDH release) ([1]; Caco-2, concentrations up to 100 µM): minimal toxicity
decrease in antimicrobial activity ([2]; 40% (v/v) human EDTA plasma in ultrapure water, 25 µM peptide): 40%
decrease in antimicrobial activity ([2]; 40% (v/v) human EDTA plasma in ultrapure water, 50 µM peptide): 30%
decrease in antimicrobial activity ([2]; 40% (v/v) human EDTA plasma in ultrapure water, 100 µM peptide): 17%
decrease in antimicrobial activity ([2]; 80% (v/v) human EDTA plasma in ultrapure water, 25 µM peptide): 60%
decrease in antimicrobial activity ([2]; 80% (v/v) human EDTA plasma in ultrapure water, 50 µM peptide): 39%
decrease in antimicrobial activity ([2]; 80% (v/v) human EDTA plasma in ultrapure water, 100 µM peptide): 29%
cell viability (XTT) ([3]; 25 µM and 50 µM (up to 50 µM), absorbance 450 nm): did not cause significant decreases
cell viability (XTT) ([3]; 100 µM): slight reduction
cell viability (neutral red) ([4]; 25 µM and 50 µM (up to 50 µM)): did not cause significant decreases
cell viability (neutral red) ([4]; 100 µM): slight reduction
migrated peptide ([5]; HUVEC monolayer on 8 µm pore insert, apical addition, NHS-fluorescein labelled peptide 50 µM, 37 °C, TEER above 300 Ω, read at 490 nm, % of no-monolayer control, triplicate): 93%
percentage attached and/or entered peptide ([5]; HUVEC, labelled peptide 50 µM, total fluorescence minus migrated and residual peptide): 0%

Reference: article PMC6685951, “Migration of Bacteriocins Across Gastrointestinal Epithelial and Vascular Endothelial Cells, as Determined Using In Vitro Simulations” (Scientific Reports, 2019)
